Legend:
olfactory epithelium [1] = experiment: PET imaging of radiotracer uptake and specific binding with unlabeled-compound pretreatment in rats; assay type: in vivo, Sprague-Dawley rat
Text: Prior to imaging, animals were anesthetized with isoflurane and a catheter was placed in a lateral tail vein. An extension line was used to attach the catheter to a syringe with heparinized saline, which was used to prevent clotting of the line and catheter. Animals were then placed in one of two instruments (a GammeMedicaTriumph PET/CT/SPECT scanner or a Siemens R4 PET scanner) and maintained under isoflurane anesthesia for the imaging period. For scans completed in the Triumph scanner, CT images of the animals were taken for PET image attenuation. For animals imaged in the R4, a Germanium (Ge) 68 or a Cobalt (Co) 57 line source was used to create an attenuation correction map. Following imaging, animals were placed in their cages and monitored until they recovered from the anesthesia.
Male Sprague-Dawley rats were imaged with [^11C] radiolabeled N-benzyl-2-fluoro-9-methyl-9H-purin-6-amine following treatment with [^12C] radiolabeled N-benzyl-2-fluoro-9-methyl-9H-purin-6-amine to determine the specific binding of the radiotracer in the olfactory epithelium. Animals were injected with [^12C] radiolabeled N-benzyl-2-fluoro-9-methyl-9H-purin-6-amine (i.v.; 16 mg/kg; 4 mg/mL in 10% DMSO, 10% Tween 20, and 80% saline). After 5 min, animals were injected with [^11C] radiolabeled N-benzyl-2-fluoro-9-methyl-9H-purin-6-amine (0.3-1.5 mCi), in 10% ethanol, 90% saline). [^11C] […] Although [^11C] […] N-benzyl-2-fluoro-9-methyl-9H-purin-6-amine binding in the presence of unlabeled N-benzyl-2-fluoro-9-methyl-9H-purin-6-amine, shown in FIG. 1A-1D.
Animals were injected with an unlabeled N-benzyl-2-fluoro-9-methyl-9H-purin-6-amine (0.1-16 mg/kg in 10% DMSO, 10% Tween 20, and 80% saline). Following this, animals were injected with [^11C] radiolabeled N-benzyl-2-fluoro-9-methyl-9H-purin-6-amine (0.3-1.5 mCi, in 10% ethanol, 90% saline). For the self-blocking dose-response study, the animals were co-administered with N-benzyl-2-fluoro-9-methyl-9H-purin-6-amine and [^11C] radiolabeled N-benzyl-2-fluoro-9-methyl-9H-purin-6-amine in 10% DMSO, 10% Tween 20, 10% ethanol and 70% saline in 1 mL.

olfactory epithelium [2] = experiment: PET-MR imaging of radiotracer uptake in non-human primate; assay type: in vivo, rhesus macaque; details: NHPs
Experimental: The non-human primates were initially anesthetized with ketamine, followed by maintenance with isoflurane. Animals were placed on the imaging bed and two lines were inserted, an IV line for tracer administration and an arterial line for blood sampling. The animals were scanned for 90 minutes, including time for the MR structural scan. During the scan and tracer injection, the heart and breathing rate of the animal were monitored. Tracer doses were 4-6 mCi (bolus or bolus-plus-infusion) with or without treatment with study compounds (nonradioactive ‘blocking agent’). Prior to tracer injection, the purified tracer was analyzed on an analytical HPLC instrument to determine the purity (must be >95% chemical purity, must be >99% radiochemical purity) and specific activity (must be >1.0 Ci·μmol^−1 of the compound). As standard practice for all NHP work, pyrogenicity, chemical and radiochemical stability, residual solvents, pH, and sterility (post injection) were tested for. For [^11C] radiolabeled compounds, paired studies were performed with radiotracer injections spaced >2.5 h apart. For [^18F] studies, paired studies were performed by assessing baseline and pretreatment effect on two separate days. […]

[3] = PET, i.v. radiotracer, male Sprague-Dawley rats

## [11CH3]n1cnc2c(NCc3ccccc3)nc(F)nc21 [[^11C] Radiolabeled N-benzyl-2-fluoro-9-methyl-9H-purin-6-amine]
Olfactory epithelium [1]; PET, brain
  non-specific binding: low non-specific binding
  specific binding in the brain: limited specific binding in the brain
Olfactory epithelium [1]; [3]
  initial uptake in the brain: high initial uptake in the brain
  removal from the brain: fast removal from the brain
Olfactory epithelium [1]; PET, nasal cavity where olfactory receptor neurons are located, rats
  specific binding in the nasal cavity: specific binding in the nasal cavity
Olfactory epithelium [1]; nasal cavity, rats, unlabeled compound i.v. 16 mg/kg 5 min before tracer
  change of radiotracer binding in the presence of unlabeled N-benzyl-2-fluoro-9-methyl-9H-purin-6-amine: decrease
Olfactory epithelium [2]
  specific binding in the nasal cavity: specific binding is present in the nasal cavity
Olfactory epithelium [2]; nasal cavity
  change of radiotracer binding in the presence of unlabeled N-benzyl-2-fluoro-9-methyl-9H-purin-6-amine: decrease

— patent US10519160B2, “Imaging agents for neural flux” (The General Hospital Corporation, priority 2014, dated 2019)
